From patent US10584124B2, “Crystalline forms” (Array BioPharma Inc., priority 2017, dated 2020)
Read-outs that look alike come from different tables or passages of the source.

Experiments:
[1] = Screen of conditions for sulfuric and phosphoric acid salts of Formula I (freebase solubility observations); format: physicochemical; details: 25° C.
From the text: The use of sulfuric acid in 4:1 DCM/EtOH provided a filterable solid after stirring overnight.

[2] = Solubility of the free base of the compound of Formula I in solvents and mixed solvent systems; format: physicochemical; details: for solubility: thermodynamic from solid
Description: The solubility was also determined in mixed solvent systems such as DCM/EtOH, DMSO/EtOH, DMSO/water, THF/EtOH, and THF/water.
The solubility studies were conducted as follows. […] The samples were then heated to 60° C. Should the solids dissolve on heating, more freebase was added in 3 to 5 mg portions.

With `COc1ccc(CN2CCN(c3ccc(-c4cc(-c5cnn(C)c5)cn5ncc(C#N)c45)cn3)CC2)cn1` [freebase of the compound of Formula I, 4-(6-(4-((6-methoxypyridin-3-yl)methyl)piperazin-1-yl)pyridin-3-yl)-6-(1-methyl-1H-pyrazol-4-yl)pyrazolo[1,5-a]pyridine-3-carbonitrile] as the compound, how does the “Solubility (in words)” value ([1]; 4:1 DCM/EtOH (100 vol)) read?
The value was “dissolve”.

What about the “Solubility (in words)” value ([1]; THF, EtOH, and 1:1 DCM/EtOH (100 vol)) of the same compound?
The value was “limited solubility”.

And the solubility ([2]; 0.1M HCl, 25 °C, simulated gastric fluid, read-out: Solubility at 25° C.)?
The solubility was 1500 µg/mL.

What about the solubility ([2]; 10% THF in H2O, 25 °C, aqueous with cosolvent or surfactant or cyclodextrin, title: THF/H2O at room temperature, head: % THF in EtOH = 10, read-out: Solubility) of the same compound?
Its solubility is 150 µg/mL.

What about the solubility ([2]; 20% THF in H2O, 25 °C, aqueous with cosolvent or surfactant or cyclodextrin, title: THF/H2O at room temperature, head: % THF in EtOH = 20, read-out: Solubility) of the same compound?
Its solubility is 130 µg/mL.

And the solubility ([2]; 25 °C, aqueous with cosolvent or surfactant or cyclodextrin, 20% DMSO in H2O, room temperature, read-out: Solubility)?
Its solubility is 80 µg/mL.

What about the solubility ([2]; 25 °C, aqueous with cosolvent or surfactant or cyclodextrin, 30% DMSO in H2O, room temperature, read-out: Solubility) of the same compound?
Its solubility is 90 µg/mL.

And the solubility ([2]; 25 °C, aqueous with cosolvent or surfactant or cyclodextrin, 40% DMSO in H2O, room temperature, read-out: Solubility)?
The solubility was 100 µg/mL.

What about the solubility ([2]; 25 °C, aqueous with cosolvent or surfactant or cyclodextrin, 50% DMSO in H2O, room temperature, read-out: Solubility) of the same compound?
Its solubility is 90 µg/mL.

What about the solubility ([2]; 25 °C, aqueous with cosolvent or surfactant or cyclodextrin, 60% DMSO in H2O, room temperature, read-out: Solubility) of the same compound?
Its solubility is 100 µg/mL.

And the solubility ([2]; 25 °C, aqueous with cosolvent or surfactant or cyclodextrin, 70% DMSO in H2O, room temperature, read-out: Solubility)?
The solubility was 150 µg/mL.

What about the solubility ([2]; 25 °C, aqueous with cosolvent or surfactant or cyclodextrin, 80% DMSO in H2O, room temperature, read-out: Solubility) of the same compound?
Its solubility is 350 µg/mL.

What about the solubility ([2]; 25 °C, aqueous with cosolvent or surfactant or cyclodextrin, 90% DMSO in H2O, room temperature, read-out: Solubility) of the same compound?
The solubility was 1520 µg/mL.

And the solubility ([2]; 25 °C, organic solvent or mixture, 20% DCM in EtOH, room temperature, read-out: Solubility)?
Its solubility is 260 µg/mL.

And the solubility ([2]; 25 °C, organic solvent or mixture, 20% DMSO in EtOH, room temperature, read-out: Solubility)?
The solubility was 180 µg/mL.

What about the solubility ([2]; 25 °C, organic solvent or mixture, 20% THF in EtOH, room temperature, read-out: Solubility) of the same compound?
Its solubility is 340 µg/mL.

And the solubility ([2]; 25 °C, organic solvent or mixture, 30% DCM in EtOH, room temperature, read-out: Solubility)?
Its solubility is 870 µg/mL.

What about the solubility ([2]; 25 °C, organic solvent or mixture, 30% DMSO in EtOH, room temperature, read-out: Solubility) of the same compound?
Its solubility is 390 µg/mL.

And the solubility ([2]; 25 °C, organic solvent or mixture, 30% THF in EtOH, room temperature, read-out: Solubility)?
The solubility was 550 µg/mL.

And the solubility ([2]; 25 °C, organic solvent or mixture, 40% DCM in EtOH, room temperature, read-out: Solubility)?
The solubility was 2530 µg/mL.

And the solubility ([2]; 25 °C, organic solvent or mixture, 40% DMSO in EtOH, room temperature, read-out: Solubility)?
The solubility was 610 µg/mL.

What about the solubility ([2]; 25 °C, organic solvent or mixture, 40% THF in EtOH, room temperature, read-out: Solubility) of the same compound?
Its solubility is 820 µg/mL.

What about the solubility ([2]; 25 °C, organic solvent or mixture, 50% DCM in EtOH, room temperature, read-out: Solubility) of the same compound?
The solubility was 7420 µg/mL.

What about the solubility ([2]; 25 °C, organic solvent or mixture, 50% DMSO in EtOH, room temperature, read-out: Solubility) of the same compound?
Its solubility is 1140 µg/mL.

What about the solubility ([2]; 25 °C, organic solvent or mixture, 50% THF in EtOH, room temperature, read-out: Solubility) of the same compound?
Its solubility is 1380 µg/mL.

And the solubility ([2]; 25 °C, organic solvent or mixture, 60% DCM in EtOH, room temperature, read-out: Solubility)?
Its solubility is 16600 µg/mL.

And the solubility ([2]; 25 °C, organic solvent or mixture, 60% DMSO in EtOH, room temperature, read-out: Solubility)?
The solubility was 1800 µg/mL.

What about the solubility ([2]; 25 °C, organic solvent or mixture, 60% THF in EtOH, room temperature, read-out: Solubility) of the same compound?
Its solubility is 1970 µg/mL.

And the solubility ([2]; 25 °C, organic solvent or mixture, 70% DCM in EtOH, room temperature, read-out: Solubility)?
The solubility was 22700 µg/mL.

What about the solubility ([2]; 25 °C, organic solvent or mixture, 70% DMSO in EtOH, room temperature, read-out: Solubility) of the same compound?
Its solubility is 2570 µg/mL.

And the solubility ([2]; 25 °C, organic solvent or mixture, 70% THF in EtOH, room temperature, read-out: Solubility)?
The solubility was 2510 µg/mL.

And the solubility ([2]; 25 °C, organic solvent or mixture, 80% DCM in EtOH, room temperature, read-out: Solubility)?
Its solubility is 29000 µg/mL.

And the solubility ([2]; 25 °C, organic solvent or mixture, 80% DMSO in EtOH, room temperature, read-out: Solubility)?
The solubility was 4280 µg/mL.

What about the solubility ([2]; 25 °C, organic solvent or mixture, 80% THF in EtOH, room temperature, read-out: Solubility) of the same compound?
The solubility was 3090 µg/mL.

And the solubility ([2]; 25 °C, organic solvent or mixture, 90% DCM in EtOH, room temperature, read-out: Solubility)?
Its solubility is 34200 µg/mL.

And the solubility ([2]; 25 °C, organic solvent or mixture, 90% DMSO in EtOH, room temperature, read-out: Solubility)?
Its solubility is 4440 µg/mL.

What about the solubility ([2]; 25 °C, organic solvent or mixture, 90% THF in EtOH, room temperature, read-out: Solubility) of the same compound?
The solubility was 3180 µg/mL.

What about the solubility ([2]; 25 °C, organic solvent or mixture, 100% DMSO in EtOH, room temperature, read-out: Solubility) of the same compound?
Its solubility is 6960 µg/mL.

And the solubility ([2]; 30% THF in H2O, 25 °C, aqueous with cosolvent or surfactant or cyclodextrin, title: THF/H2O at room temperature, head: % THF in EtOH = 30, read-out: Solubility)?
Its solubility is 350 µg/mL.

And the solubility ([2]; 40% THF in H2O, 25 °C, aqueous with cosolvent or surfactant or cyclodextrin, title: THF/H2O at room temperature, head: % THF in EtOH = 40, read-out: Solubility)?
The solubility was 1360 µg/mL.

What about the solubility ([2]; 50% THF in H2O, 25 °C, aqueous with cosolvent or surfactant or cyclodextrin, title: THF/H2O at room temperature, head: % THF in EtOH = 50, read-out: Solubility) of the same compound?
Its solubility is 2500 µg/mL.

What about the solubility ([2]; 60% THF in H2O, 25 °C, aqueous with cosolvent or surfactant or cyclodextrin, title: THF/H2O at room temperature, head: % THF in EtOH = 60, read-out: Solubility) of the same compound?
The solubility was 3760 µg/mL.

And the solubility ([2]; 70% THF in H2O, 25 °C, aqueous with cosolvent or surfactant or cyclodextrin, title: THF/H2O at room temperature, head: % THF in EtOH = 70, read-out: Solubility)?
Its solubility is 6170 µg/mL.

What about the solubility ([2]; 80% THF in H2O, 25 °C, aqueous with cosolvent or surfactant or cyclodextrin, title: THF/H2O at room temperature, head: % THF in EtOH = 80, read-out: Solubility) of the same compound?
The solubility was 6650 µg/mL.

What about the solubility ([2]; 90% THF in H2O, 25 °C, aqueous with cosolvent or surfactant or cyclodextrin, title: THF/H2O at room temperature, head: % THF in EtOH = 90, read-out: Solubility) of the same compound?
Its solubility is 6560 µg/mL.

And the solubility ([2]; 100% DMSO (DMSO/H2O series), 25 °C, organic solvent or mixture, 100% DMSO in H2O, room temperature, read-out: Solubility)?
The solubility was 6960 µg/mL.

And the solubility ([2]; 100% THF (THF/EtOH series), 25 °C, organic solvent or mixture, 100% THF in EtOH, room temperature, read-out: Solubility)?
Its solubility is 2590 µg/mL.

What about the solubility ([2]; 100% THF (THF/H2O series), 25 °C, organic solvent or mixture, title: THF/H2O at room temperature, head: % THF in EtOH = 100, read-out: Solubility) of the same compound?
The solubility was 2590 µg/mL.

What about the “Solids dissolve at 60° C.?” value ([2]; ACN) of the same compound?
Its value is “No”.

And the solubility ([2]; ACN, 25 °C, organic solvent or mixture, read-out: Solubility at 25° C.)?
Its solubility is 330 µg/mL.

What about the solubility ([2]; DCE, 25 °C, organic solvent or mixture, read-out: Solubility at 25° C.) of the same compound?
The solubility was 4600 µg/mL.

What about the “Solids dissolve at 60° C.?” value ([2]; EtOAc) of the same compound?
Its value is “No”.

And the solubility ([2]; EtOAc, 25 °C, organic solvent or mixture, read-out: Solubility at 25° C.)?
Its solubility is 360 µg/mL.

What about the “Solids dissolve at 60° C.?” value ([2]; EtOH) of the same compound?
Its value is “No”.

What about the solubility ([2]; EtOH, 25 °C, organic solvent or mixture, read-out: Solubility at 25° C.) of the same compound?
Its solubility is 40 µg/mL.

And the “Solids dissolve at 60° C.?” value ([2]; IPA)?
The value was “No”.

What about the “Solids dissolve at 60° C.?” value ([2]; MEK) of the same compound?
Its value is “No”.

What about the solubility ([2]; MEK, 25 °C, organic solvent or mixture, read-out: Solubility at 25° C.) of the same compound?
Its solubility is 690 µg/mL.

What about the “Solids dissolve at 60° C.?” value ([2]; MeOH) of the same compound?
Its value is “No”.

And the solubility ([2]; MeOH, 25 °C, organic solvent or mixture, read-out: Solubility at 25° C.)?
Its solubility is 70 µg/mL.

And the “Solids dissolve at 60° C.?” value ([2]; THF)?
The value was “Yes”.

And the “freebase dissolved in THF at 60° C.” value ([2]; THF (1 mL), 60° C., solution turned milky at 13 mg)?
The value was 10 to 13 mg.

What about the “Solids dissolve at 60° C.?” value ([2]; acetone) of the same compound?
Its value is “No”.

What about the solubility ([2]; acetone, 25 °C, organic solvent or mixture, read-out: Solubility at 25° C.) of the same compound?
Its solubility is 440 µg/mL.

And the solubility ([2]; aqueous with cosolvent or surfactant or cyclodextrin, 10% DMSO in H2O, room temperature, read-out: Solubility)?
Its solubility is 90 µg/mL.

And the “Solids dissolve at 60° C.?” value ([2]; iPAc)?
The value was “No”.

What about the solubility ([2]; iPAc, 25 °C, organic solvent or mixture, read-out: Solubility at 25° C.) of the same compound?
Its solubility is 250 µg/mL.

And the solubility ([2]; organic solvent or mixture, 0% DCM in EtOH, room temperature, read-out: Solubility)?
Its solubility is 50 µg/mL.

What about the solubility ([2]; organic solvent or mixture, 0% DMSO in EtOH, room temperature, read-out: Solubility) of the same compound?
The solubility was 50 µg/mL.

What about the solubility ([2]; organic solvent or mixture, 10% DCM in EtOH, room temperature, read-out: Solubility) of the same compound?
The solubility was 60 µg/mL.

What about the solubility ([2]; organic solvent or mixture, 10% DMSO in EtOH, room temperature, read-out: Solubility) of the same compound?
The solubility was 90 µg/mL.

And the solubility ([2]; organic solvent or mixture, 10% THF in EtOH, room temperature, read-out: Solubility)?
The solubility was 290 µg/mL.

What about the solubility ([2]; organic solvent or mixture, 100% DCM in EtOH, room temperature, read-out: Solubility) of the same compound?
Its solubility is 17300 µg/mL.

What about the solubility ([2]; organic solvent or mixture, DMA, 60° C., read-out: Solubility at 60° C.) of the same compound?
The solubility was greater than 40000 µg/mL.

And the solubility ([2]; organic solvent or mixture, THF, 60° C., read-out: Solubility at 60° C.)?
The solubility was 10200 to 13000 µg/mL.

What about the “Solids dissolve at 60° C.?” value ([2]; toluene) of the same compound?
The value was “No”.

What about the solubility ([2]; toluene, 25 °C, organic solvent or mixture, read-out: Solubility at 25° C.) of the same compound?
The solubility was 350 µg/mL.

And the solubility ([2]; water, 25 °C, water, read-out: Solubility at 25° C.)?
The solubility was 70 µg/mL.
